Assay results: ChEMBL document CHEMBL3044837, “Synthesis and pharmacological investigation of novel 2-substituted-3-carboxamido-4H-pyrimidobenzothiazole derivatives as a new class of H1-antihistaminic agent” (Med Chem Res, 2013)

Test system: Mus musculus
Experiment: Sedative activity in Mus musculus Swiss albino (mouse) at 10 mg/kg, ip after 1 hr relative to control
Format: organism-based
Parameters: dose 10 mg/kg, route intraperitoneal
Settings: in vivo

Structure (SMILES) | Activity
CN(C)CCNc1nc2sc3cc(Cl)ccc3n2c(=O)c1C(N)=O | 25.97%
NC(=O)c1c(N2CCOCC2)nc2sc3ccccc3n2c1=O | 24.32%
CN(C)CCC(c1ccc(Cl)cc1)c1ccccn1.O=C(O)/C=C\C(=O)O (stereo not given) [CHLORPHENIRAMINE MALEATE] | 69.01%
CCN1CCN(c2nc3sc4cc(Cl)ccc4n3c(=O)c2C(N)=O)CC1 | 22.66%
CN(C)CCNc1nc2sc3ccccc3n2c(=O)c1C(N)=O | 36.25%
NC(=O)c1c(N2CCCC2)nc2sc3ccccc3n2c1=O | 33.33%
NC(=O)c1c(N2CCCCC2)nc2sc3ccccc3n2c1=O | 23.61%
NC(=O)c1c(N2CCCC2)nc2sc3cc(Cl)ccc3n2c1=O | 38.27%
NC(=O)c1c(N2CCN(CCO)CC2)nc2sc3cc(Cl)ccc3n2c1=O | 30.37%
CN1CCN(c2nc3sc4cc(Cl)ccc4n3c(=O)c2C(N)=O)CC1 | 32.92%
NC(=O)c1c(N2CCCCC2)nc2sc3cc(Cl)ccc3n2c1=O | 20.51%
NC(=O)c1c(N2CCN(CCO)CC2)nc2sc3ccccc3n2c1=O | 36.47%
CN1CCN(c2nc3sc4ccccc4n3c(=O)c2C(N)=O)CC1 | 35.21%
NC(=O)c1c(N2CCOCC2)nc2sc3cc(Cl)ccc3n2c1=O | 23.17%
CCN1CCN(c2nc3sc4ccccc4n3c(=O)c2C(N)=O)CC1 | 26.43%
